Experimental data from patent US8929978B2, “Phototherapy devices and methods comprising optionally substituted terphenyl and quaterphenyl compounds” (Nitto Denko Corporation, priority 2011, dated 2015).

What was measured:
[1] = tested on: person suffering from actinic keratoses; test: Photodynamic treatment of actinic keratoses lesions with red OLED light; conditions: 20% topical solution; illuminated about 14-18 hours after application with red OLED of Example 2
[2] = tested on: CHO-K1 (Chinese Hamster Ovarian Cancer, ATCC, CRL-2243) cell line; test: Ex-vivo efficacy study with OLED Device A and ALA (MTT cell viability, microscopy)
[3] = tested on: person suffering from pathological myopia; test: Verteporphin activated by red OLED light in pathological myopia; format: in vivo; conditions: about 6 mg/m^2 i.v.; retina illuminated about 15 minutes after start of infusion with red OLED
[4] = tested on: person suffering from age-related macular degeneration; test: Verteporphin activated by red OLED light in age-related macular degeneration; format: in vivo; conditions: about 6 mg/m^2 i.v.; retina illuminated about 15 minutes after start of infusion with red OLED
[5] = tested on: person suffering from presumed ocular histoplasmosis; conditions: in vivo, iv

**Q.** How did the “number or severity of the lesions after treatment” value [1] turn out when `Cl.NCC(=O)CCC(=O)O` [5-Aminolevulinic acid HCl] was run?
**A.** Its value is “reduced”.

**Q.** Which results are given for `NCC(=O)CCC(=O)O` [ALA, 5-aminolevulinic acid]?
**A.** cell necrosis, 20 mW/cm^2 versus 10 mW/cm^2 output power ([2]; ALA 1 mM, irradiation time 25 min at 20 mW/cm^2 and 50 min at 10 mW/cm^2 (FIG. 17)): somewhat faster with 20 mW/cm^2 than 10 mW/cm^2; generation of PpIX (protoporphyrin IX) from ALA in cells ([2]; ALA 0.5, 1, 2 mM, about 16 hrs at 37° C., fluorescence emission at 635 nm): confirmed; cytotoxicity at 1000 µM ([2]; Cricetulus griseus, CHO-K1, light or radiation study, read-out: cells destroyed compared with the reference (MTT cell viability, light dosimetry)): ~90%; cell morphology under optical microscope after light irradiation ([2]; after about 25 J/cm^2 red light (630 nm) irradiation, leafy type cells transform to droplet type (FIG. 14)): significant and irreversible cell death

**Q.** With `C=Cc1c(C)c2cc3nc(cc4[nH]c(cc5nc(cc1[nH]2)C(C)=C5CCC(=O)O)c(CCC(=O)OC)c4C)[C@@]1(C)C3=CC=C(C(=O)OC)[C@H]1C(=O)OC` [Verteporphin] as the compound, how does the “patient's vision after treatment” value [3] read?
**A.** Its value is “stabilized”.

**Q.** What about the “patient's vision after treatment” value [4] of the same compound?
**A.** The value was “stabilized”.

**Q.** And the “patient's vision after treatment” value [5]?
**A.** The value was “stabilized”.
